Assay results taken from patent publication US12729221B2, “Anti-inflammatory peptide and use thereof” (MITO QUEST CO., LTD., priority 2020, dated 2026).
pKd: −log10 of the molar value. Where no end group is shown, it is not given here.

Assays:
[1] = molecular target: recombinant MAVS protein (Homo sapiens, UniProt Q7Z434); assay: Binding of fluorescence-labeled peptides to plate-coated recombinant MAVS protein
Protocol: Specifically, recombinant MAVS protein and fluorescence-labeled peptides MQP-37 and MQP-37A6 were used to check the binding affinity to the MAVS protein. First, 250 ng of recombinant MAVS protein was coated on a 96-well plate for ELISA, followed by blocking with 1% BSA/PBS solution. Thereafter, fluorescence-labeled peptides of various concentrations were added thereto and reacted for 2 hours, and the amount of peptide bound to the MAVS protein was checked by fluorescence measurement.

[2] = test system: IL-1b; assay: LPS/ATP-induced IL-1b expression (inflammasome response) in IC21, ELISA; assay type: cell-based, mouse; conditions: 1 mg/ml LPS, 5 mM ATP 30 minutes
Protocol: (§1) Specifically, LPS and ATP were used to induce an inflammasome response caused by bacterial infection, and polyIC was used to induce an inflammatory response caused by viral infection. First, 1 mg/ml LPS and 5 mM or 1 mM novel alanine-substituted peptide were mixed in a serum-free cell culture medium, followed by treatment with 1×10^5 cells of IC21. Thereafter, 5 mM ATP and 5 mM or 1 mM novel alanine-substituted peptide were mixed in a serum-free cell culture medium and treated for 30 minutes. Then, the supernatant was obtained and the expression level of IL-1b was checked by ELISA. Also, 5 mg/ml polyIC and 25 mM or 2 mM novel alanine-substituted peptide were mixed in a serum-free cell culture medium, followed by treatment with 1×10^5 cells of MLE-12 for 16 hours. Thereafter, the supernatant was obtained and the expression level of IFN-b was checked by ELISA.
as §1, with “2” for “5 mM or 1”, “amino acid-substituted” for “alanine-substituted”, “and” for “and 25 mM or”
Specifically, LPS was used to induce an inflammatory response caused by bacterial infection. First, MQP-37 or MQP-37A6 was added to a serum-free cell culture medium containing 0.1 mg/ml LPS, followed by treatment with 1×10^5 cells of IC21 for 6 hours. Then, the supernatant was obtained and the expression level of IL-6 was checked by ELISA. Also, the Western blot was performed and the phosphorylation of NF-κB was checked to identify the mechanism of immune activation response. Thereafter, LPS and ATP were used to induce an inflammasome response caused by bacterial infection, LPS and ATP were used. First, 1 mg/ml LPS and L- or D-MQP-37 and MQP-37A6 were mixed in a serum-free cell culture medium and treated with 1×10^5 cells of IC21. Then, 5 mM ATP and MQP-37 or MQP-37A6 were mixed in a serum-free cell culture medium and treated for 30 minutes. Thereafter, the supernatant was obtained and the expression level of IL-1b was checked by ELISA.

[3] = test system: NF-κB; assay: LPS-induced phosphorylation of NF-kB in IC21, Western blot; assay type: cell-based, mouse; conditions: LPS, Western blot, FIGS. 12B-D to 12B-F
Text: Specifically, LPS was used to induce an immune activation response caused by bacterial infection, and the phosphorylation of nuclear factor kappa-light-chain-enhancer of activated B cells (NF-kB) was checked to identify the mechanism of the immune activation response. […] Thereafter, the cells were washed with a PBS solution and then lysed with a RIPA buffer, and the supernatant was separated. In order to measure the change in the phosphorylation amount of NF-κB protein with the separated supernatant, the Western blot was performed as in Example 2.

[4] = test system: mouse sepsis models induced by LPS; assay: Mouse sepsis model induced by LPS, survival; assay type: in vivo, C57BL/6 wild-type mice
Protocol: Specifically, 2 mg/kg and 5 mg/kg LPS were administered into the abdominal cavity of 7-week-old C57BL/6 wild-type mice every 6 hours, and 1 hour later, 0.4 mg/kg, 2 mg/kg and 10 mg/kg novel peptides were additionally administered into the abdominal cavity of the mice. Then, the survival of the mice was checked for 4 days.

[5] = test system: interferon-beta (IFN-b); assay: polyIC-induced IFN-b expression in MLE-12 cells, ELISA; assay type: cell-based, mouse; conditions: 5 mg/ml polyIC, 16 hours, 25 mM or 2 mM peptide, FIG. 9A
Protocol: Specifically, polyinosinic:polycytidylic acid (polyIC), which is a synthetic ribonucleic acid known to be associated with viral infection among the PAMPs and promotes the production of interferon and is analogous to an RNA virus gene, was used to induce a viral infection response. First, a serum-free cell culture medium containing 5 mg/ml polyIC and MQP-15, MQP-23, MQP-31, MQP-37, MQP-Y9 or MQP-T234 was treated with 1×10^5 cells of a mouse lung epithelial cell line (MLE-12) for 16 hours. Then, the supernatant was obtained and the expression level of interferon-beta (IFN-b) was checked by enzyme-linked immunosorbent assay (ELISA).
as §1
as §1, with “2” for “5 mM or 1”, “amino acid-substituted” for “alanine-substituted”, “and” for “and 25 mM or”
Specifically, polyIC was used to induce a viral infection response. First, a serum-free cell culture medium containing 5 mg/ml polyIC and MQP-37, MQP-37A6, MQP-37D6W, MQP-37D6Y, MQP-37D6H, MQP-37D6K, MQP-37D6R or MQP-37D6V was treated with 1×10^5 cells of MLE-12 for 16 hours. Then, the supernatant was obtained and the expression level of IFN-b was checked by ELISA.

[6] = test system: interleukin-6 (IL-6); assay: LPS-induced IL-6 expression in IC21, ELISA; assay type: cell-based, mouse; conditions: 0.1 mg/ml LPS, 6 hours, FIG. 12A-A
Protocol: Specifically, LPS was used to induce an inflammatory response caused by bacterial infection. First, MQP-15, MQP-23, MQP-31, MQP-37 or MQP-Y9 was added to a serum-free cell culture medium containing 0.1 mg/ml LPS, followed by treatment with 1×10^5 cells of IC21 for 6 hours. Then, the supernatant was obtained and the expression levels of interleukin-6 (IL-6) and a tumor necrosis factor-alpha (TNF-a) were checked by ELISA.

recombinant MAVS protein, sequence (Q7Z434 whole entry, species assumed): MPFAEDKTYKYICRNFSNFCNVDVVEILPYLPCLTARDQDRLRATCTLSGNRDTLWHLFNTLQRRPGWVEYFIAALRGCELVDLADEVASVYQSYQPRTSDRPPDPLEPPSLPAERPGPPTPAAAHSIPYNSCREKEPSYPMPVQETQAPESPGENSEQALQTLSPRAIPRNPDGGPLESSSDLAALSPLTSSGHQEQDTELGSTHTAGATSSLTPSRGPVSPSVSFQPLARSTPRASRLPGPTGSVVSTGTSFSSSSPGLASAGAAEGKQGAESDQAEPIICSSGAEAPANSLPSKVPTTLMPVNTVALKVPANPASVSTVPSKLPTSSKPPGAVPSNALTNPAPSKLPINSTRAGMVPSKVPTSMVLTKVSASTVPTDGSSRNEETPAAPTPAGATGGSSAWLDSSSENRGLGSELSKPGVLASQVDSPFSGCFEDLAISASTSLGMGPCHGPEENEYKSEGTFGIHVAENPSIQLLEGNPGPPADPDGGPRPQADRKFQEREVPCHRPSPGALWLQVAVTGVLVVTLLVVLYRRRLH

SLVLAAARW [MQP-37A6]
pKd [1]: ~3.12
inflammasome response caused by bacterial infection (IL-1b), sixth amino acid of MQP-37 substituted ([2]; 2 mM peptide, FIG. 10A-B): most effectively
inflammasome response caused by bacterial infection (IL-1b), compared to original MQP-37 ([2]; 5 mM or 1 mM peptide, FIG. 9A): significantly improved
inflammasome response caused by bacterial infection (IL-1b), compared with MQP-37 ([2]; FIGS. 12A-B and 12A-C): more than the original peptide MQP-37
immune activation response (NF-κB phosphorylation), compared with MQP-37 [3]: more than the original peptide MQP-37
treating sepsis [4]: effective
inflammatory response caused by viral infection (IFN-b), compared to original MQP-37 [5]: significantly improved
inflammatory response caused by bacterial infection (IL-6), compared with MQP-37 [6]: more than the original peptide MQP-37
